Laboratory results from ChEMBL document CHEMBL4052677, “A small-molecule screen identifies the antitrypanosomal agent suramin and analogues NF023 and NF449 as inhibitors of STAT5a/b” (Bioorg Med Chem Lett, 2017).
The source made the active and inactive calls. The calls are words filed in the database; no cut-off is given here.

Key:
[1] = target: T1, Signal transducer and activator of transcription 5A (Homo sapiens) (UniProt P42229); assay: (§1) Inhibition of 5-carboxyfluorescein-GpYLVLDKW-OH binding to C-terminal 6x-His-tagged and an N-terminal maltose-binding protein-tagged STAT5A SH2 domain (137 to 507 residues) (unknown origin) expressed in Escherichia coli Rosetta BL21 DE3 at 50 uM pre-incubated for 1 hr before fluorescent-labelled peptide addition by fluorescence polarization assay
T1 sequence (whole entry): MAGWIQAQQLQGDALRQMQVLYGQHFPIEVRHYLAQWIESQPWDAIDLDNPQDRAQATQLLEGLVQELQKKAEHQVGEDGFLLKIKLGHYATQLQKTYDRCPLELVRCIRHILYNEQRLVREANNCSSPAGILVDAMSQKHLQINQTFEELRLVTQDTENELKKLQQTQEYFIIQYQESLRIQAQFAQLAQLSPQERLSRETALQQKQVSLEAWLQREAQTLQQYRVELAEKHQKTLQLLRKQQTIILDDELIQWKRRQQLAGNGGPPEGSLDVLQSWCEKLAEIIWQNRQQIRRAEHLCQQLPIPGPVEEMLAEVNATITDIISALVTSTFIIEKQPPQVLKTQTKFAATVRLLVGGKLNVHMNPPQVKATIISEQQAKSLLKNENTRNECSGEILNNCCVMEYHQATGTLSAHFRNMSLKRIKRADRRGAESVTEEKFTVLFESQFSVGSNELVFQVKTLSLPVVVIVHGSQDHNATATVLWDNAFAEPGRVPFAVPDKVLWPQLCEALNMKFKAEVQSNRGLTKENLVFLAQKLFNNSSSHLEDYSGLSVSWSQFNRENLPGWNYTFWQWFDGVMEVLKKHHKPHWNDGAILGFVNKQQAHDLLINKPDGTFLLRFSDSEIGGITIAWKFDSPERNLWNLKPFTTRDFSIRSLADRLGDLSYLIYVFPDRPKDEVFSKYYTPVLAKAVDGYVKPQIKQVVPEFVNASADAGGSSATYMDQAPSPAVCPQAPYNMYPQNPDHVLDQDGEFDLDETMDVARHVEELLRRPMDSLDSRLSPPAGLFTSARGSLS

[2] = target: T2, Signal transducer and activator of transcription 5A (Homo sapiens, UniProt P42229); assay: as §1, with “DE3” for “DE3 at 50 uM”
T2 sequence (P42229 whole entry): T1 sequence (whole entry)

[3] = target: T3, Signal transducer and activator of transcription 5B (Homo sapiens, UniProt P51692); assay: Inhibition of 5-carboxyfluorescein-GpYLVLDKW-OH binding to STAT5B SH2 domain (unknown origin) pre-incubated for 1 hr before fluorescent-labelled peptide addition by fluorescence polarization assay
T3 sequence (P51692 whole entry): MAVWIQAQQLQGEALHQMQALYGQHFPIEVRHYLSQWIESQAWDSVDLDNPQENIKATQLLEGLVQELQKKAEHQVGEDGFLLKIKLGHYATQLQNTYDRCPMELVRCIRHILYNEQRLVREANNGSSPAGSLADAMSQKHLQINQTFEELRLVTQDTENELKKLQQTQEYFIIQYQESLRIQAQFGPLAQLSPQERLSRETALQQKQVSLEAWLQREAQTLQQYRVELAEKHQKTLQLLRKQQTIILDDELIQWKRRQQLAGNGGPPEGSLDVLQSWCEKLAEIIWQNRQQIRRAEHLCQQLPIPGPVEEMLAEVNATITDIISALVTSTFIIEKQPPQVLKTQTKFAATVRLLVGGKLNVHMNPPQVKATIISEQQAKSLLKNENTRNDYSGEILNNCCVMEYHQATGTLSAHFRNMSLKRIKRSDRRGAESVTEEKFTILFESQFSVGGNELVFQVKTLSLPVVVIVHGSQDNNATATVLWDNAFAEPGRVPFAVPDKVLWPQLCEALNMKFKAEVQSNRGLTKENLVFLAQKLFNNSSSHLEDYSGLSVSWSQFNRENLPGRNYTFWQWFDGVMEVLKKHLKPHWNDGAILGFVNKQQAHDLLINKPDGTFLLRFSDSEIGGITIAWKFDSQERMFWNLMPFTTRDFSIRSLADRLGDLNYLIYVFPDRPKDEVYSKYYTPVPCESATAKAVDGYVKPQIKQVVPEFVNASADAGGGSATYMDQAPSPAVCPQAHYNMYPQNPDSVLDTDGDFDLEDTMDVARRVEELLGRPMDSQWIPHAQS

[4] = target: T4, Signal transducer and activator of transcription 1-alpha/beta (Homo sapiens, UniProt P42224); assay: Inhibition of 5-carboxyfluorescein-GpYDKPHVL-OH binding to STAT1 (unknown origin) pre-incubated for 1 hr before fluorescent-labelled peptide addition by fluorescence polarization assay
T4 sequence (P42224 whole entry): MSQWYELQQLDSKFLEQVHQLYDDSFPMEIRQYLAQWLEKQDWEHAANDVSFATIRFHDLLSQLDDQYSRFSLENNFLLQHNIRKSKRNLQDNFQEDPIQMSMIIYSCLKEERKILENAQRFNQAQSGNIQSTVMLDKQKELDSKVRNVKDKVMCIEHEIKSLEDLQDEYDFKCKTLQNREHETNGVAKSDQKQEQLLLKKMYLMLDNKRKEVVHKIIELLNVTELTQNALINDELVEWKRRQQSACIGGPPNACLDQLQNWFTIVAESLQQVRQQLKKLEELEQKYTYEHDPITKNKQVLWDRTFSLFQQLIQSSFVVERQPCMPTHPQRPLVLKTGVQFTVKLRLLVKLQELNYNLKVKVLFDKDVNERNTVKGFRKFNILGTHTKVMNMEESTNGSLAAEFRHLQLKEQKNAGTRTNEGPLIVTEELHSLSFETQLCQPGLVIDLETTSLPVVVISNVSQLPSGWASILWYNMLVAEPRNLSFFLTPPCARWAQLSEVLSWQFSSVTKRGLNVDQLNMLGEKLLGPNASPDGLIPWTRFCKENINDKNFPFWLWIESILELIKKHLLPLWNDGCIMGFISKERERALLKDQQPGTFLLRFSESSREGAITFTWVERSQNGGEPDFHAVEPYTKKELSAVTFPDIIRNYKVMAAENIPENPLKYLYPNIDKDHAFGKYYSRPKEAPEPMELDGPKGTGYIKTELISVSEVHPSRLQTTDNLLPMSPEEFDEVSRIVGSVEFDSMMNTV

[5] = target: Signal transducer and activator of transcription 3 (Mus musculus, UniProt P42227); assay: Inhibition of 5-carboxyfluorescein-GpYLPQTV-NH2 binding to mouse STAT3 (127 to 722 residues) expressed in Escherichia coli Rosetta BL21 DE3 pre-incubated for 1 hr before fluorescent-labelled peptide addition by fluorescence polarization assay
Chain of Signal transducer and activator of transcription 3 (P42227 whole entry, the tested form may be a part): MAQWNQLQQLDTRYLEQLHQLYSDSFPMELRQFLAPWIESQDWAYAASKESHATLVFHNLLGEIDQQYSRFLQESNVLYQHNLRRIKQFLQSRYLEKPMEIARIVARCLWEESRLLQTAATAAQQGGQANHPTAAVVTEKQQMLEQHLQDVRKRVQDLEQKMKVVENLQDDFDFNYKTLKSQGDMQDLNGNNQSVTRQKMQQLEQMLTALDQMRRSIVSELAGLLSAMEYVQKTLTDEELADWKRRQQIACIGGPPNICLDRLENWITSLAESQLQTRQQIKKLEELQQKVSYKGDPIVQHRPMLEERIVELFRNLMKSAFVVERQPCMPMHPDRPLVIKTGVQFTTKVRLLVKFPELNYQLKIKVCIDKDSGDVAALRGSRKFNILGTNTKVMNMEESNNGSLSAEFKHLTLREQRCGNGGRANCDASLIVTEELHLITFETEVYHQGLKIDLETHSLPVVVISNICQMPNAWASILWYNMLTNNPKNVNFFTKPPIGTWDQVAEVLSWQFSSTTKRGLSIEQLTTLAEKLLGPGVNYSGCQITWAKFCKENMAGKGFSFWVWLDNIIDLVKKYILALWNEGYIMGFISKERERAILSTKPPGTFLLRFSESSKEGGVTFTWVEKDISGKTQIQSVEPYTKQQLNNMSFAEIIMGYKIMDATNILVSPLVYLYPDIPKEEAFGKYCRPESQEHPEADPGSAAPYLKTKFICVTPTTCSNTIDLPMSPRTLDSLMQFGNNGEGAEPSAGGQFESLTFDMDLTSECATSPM

Structure (SMILES) | inhibition [1] | IC50 [2] [µM] | IC50 [3] [µM] | IC50 [4] [µM] | IC50 [5] [µM]
O=C(Nc1cccc(C(=O)Nc2ccc(S(=O)(=O)O)c3cc(S(=O)(=O)O)cc(S(=O)(=O)O)c23)c1)Nc1cccc(C(=O)Nc2ccc(S(=O)(=O)O)c3cc(S(=O)(=O)O)cc(S(=O)(=O)O)c23)c1 | Active | 8.8 | 12.7 | 33.2 | > 100
Cc1ccc(C(=O)Nc2ccc(S(=O)(=O)O)c3cc(S(=O)(=O)O)cc(S(=O)(=O)O)c23)cc1NC(=O)c1cccc(NC(=O)Nc2cccc(C(=O)Nc3cc(C(=O)Nc4ccc(S(=O)(=O)O)c5cc(S(=O)(=O)O)cc(S(=O)(=O)O)c45)ccc3C)c2)c1 [SURAMIN HEXASODIUM] | Active | 9.4 | 10.4 | 9.1 | > 100
O=C(Nc1cc(C(=O)Nc2ccc(S(=O)(=O)O)cc2S(=O)(=O)O)cc(C(=O)Nc2ccc(S(=O)(=O)O)cc2S(=O)(=O)O)c1)Nc1cc(C(=O)Nc2ccc(S(=O)(=O)O)cc2S(=O)(=O)O)cc(C(=O)Nc2ccc(S(=O)(=O)O)cc2S(=O)(=O)O)c1 | Active | 1.4 | 2.5 | 7.9 | > 100
